# According to paper PMC8512368, “Alpha-Glucosidase Inhibitory Assay-Screened Isolation and Molecular Docking Model from Bauhinia pulla Active Compounds” (Molecules, 2021):
# pIC50: −log10 of the molar value. Read-outs that look alike come from different tables or passages of the source.
# Molecular target: T1, alpha-glucosidase enzyme from Saccharomyces cerevisiae (EC 3.2.1.20) (Saccharomyces cerevisiae, UniProt P53341)
# T1 construct: purchased Sigma-Aldrich
# Test: biochemical
# Type: biochemical
# Conditions: for IC50: isolated compounds (Table 2), read-out: IC50 (converted)
# Procedure: Briefly, the enzyme from Saccharomyces cerevisiae (EC 3.2.1.20) and the pNPG substrate were dissolved in 0.1 M phosphate buffer (pH 7), which was enriched by bovine serum albumin and sodium azide. Standards and samples were suspended in 20% (v/v) of DMSO in a water solution. In a 96-well plate, 50 µl of PBS, standards, samples and enzyme solutions were mixed and incubated for 2 min at 37 °C. At last, 50 µl of 4 mM pNPG was added and incubated for 5 min before the kinetic parameter measurement, as described earlier.
# The velocity was examined by a linear relationship equation between absorbance and time, Equation (1).
# The percent inhibition was determined for the highest velocity as:% Inhibition = (V control − V sample)/(V control) × 100(2)
# The IC50 value was calculated by using a calibration curve equation between samples at five different concentrations and inhibition percentages.
# T1 sequence (P53341 whole entry): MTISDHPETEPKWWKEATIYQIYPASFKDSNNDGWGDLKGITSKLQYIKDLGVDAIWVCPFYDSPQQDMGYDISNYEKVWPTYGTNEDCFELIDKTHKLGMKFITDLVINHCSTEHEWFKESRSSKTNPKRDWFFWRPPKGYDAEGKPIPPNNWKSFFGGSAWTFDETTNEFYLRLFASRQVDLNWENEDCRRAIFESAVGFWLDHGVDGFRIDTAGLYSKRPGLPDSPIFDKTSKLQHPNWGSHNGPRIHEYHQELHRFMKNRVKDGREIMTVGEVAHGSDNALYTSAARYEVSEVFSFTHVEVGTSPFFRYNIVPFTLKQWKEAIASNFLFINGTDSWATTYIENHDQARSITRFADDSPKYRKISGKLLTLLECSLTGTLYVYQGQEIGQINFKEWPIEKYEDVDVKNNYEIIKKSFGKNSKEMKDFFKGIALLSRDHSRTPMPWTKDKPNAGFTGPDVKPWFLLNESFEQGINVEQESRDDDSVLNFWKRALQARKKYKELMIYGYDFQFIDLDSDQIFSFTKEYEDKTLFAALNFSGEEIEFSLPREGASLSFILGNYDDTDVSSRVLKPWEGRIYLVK
IC50 [µM],Structure (SMILES),IC50 fold higher compared to luteolin (ratio of IC50 values) [fold],pIC50,inhibitory activity drop compared with quercetin (sugar moiety added) (ratio of IC50 values)
4450,"COc1ccc(/C=C/C(=O)c2ccc(O)cc2O)cc1O [3,2’ ,4’-trihydroxy-4-methoxychalcone, 3,2’,4’-trihydroxy-4-methoxychalcone]",,,
814,COc1ccc(/C=C/C(=O)c2ccc(O)cc2O)cc1 [4-methyl ether isoliquiritigenin],,,
573,"O=c1cc(-c2ccc(O)c(O)c2)oc2cc(O)cc(O)c12 [Luteolin, luteolin]",,,
,"C[C@@H]1O[C@@H](Oc2c(-c3ccc(O)c(O)c3)oc3cc(O)cc(O)c3c2=O)[C@H](O)[C@H](O)[C@H]1O [Quercitrin, quercitrin]",,3.96,roughly 10 fold

Structure (SMILES),IC50 [µM],IC50 fold higher compared to luteolin (ratio of IC50 values) [fold],pIC50,inhibitory activity drop compared with quercetin (sugar moiety added) (ratio of IC50 values)
O=c1cc(-c2ccc(O)c(O)c2)oc2cc(O)ccc12 [5-deoxyluteolin],2130,3.5,,
